This note sets out measurements from patent US12115209B2, “ROMO1-derived antimicrobial peptides including lysine substitution and variants thereof” (KOREA UNIVERSITY RESEARCH AND BUSINESS FOUNDATION, priority 2019, dated 2024).

No end group written: not given here.

Series [1] relates to Staphylococcus aureus, Pseudomonas aeruginosa, Klebsiella pneumoniae and Acinetobacter baumannii. In words: Survival rate of mice injected with gram-positive or gram-negative bacteria. In kind it is in vivo, mice (C57BL/6). Conditions: mice injected with gram-positive or gram-negative bacteria (FIG. 3). The source says: Following Example 2-2, in order to evaluate the antibacterial activity of the KU-5878 peptide in vivo, Staphylococcus aureus as gram-positive bacteria, Pseudomonas aeruginosa, Klebsiella pneumoniae and Acinetobacter baumannii as gram-negative bacteria, and multidrug-resistant Pseudomonas aeruginosa, methicillin-resistant Staphylococcus aureus, multidrug-resistant Klebsiella pneumoniae and multidrug-resistant Acinetobacter baumannii as multidrug-resistant bacteria were selected, and the following experiment was performed.
The experimental method is as described in Example 2-2 above. For a positive group, each type of the bacteria was injected into mice, and after 24 hours, 30 mg/kg of imipenem, a carbapenem-based antibiotic, was injected intraperitoneally (IP), and then the same amount of imipenem was administered intraperitoneally a total of 4 times at 12-hour intervals. The survival rates of each control group and the experimental group were measured at 24-hour intervals.

Series [2] concerns Methicillin-resistant Staphylococcus aureus (MRSA, ATCC 33591). In words: Minimum bactericidal concentration (MBC) assay. The following applies: Tables 11-21, no unit printed. The format is cell-based. In short, it runs like this:
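Peptide at 0 to 300 μg/ml reacted 1 h at 37 °C with 1×10^5 CFU/ml bacteria in SP buffer (10 mM sodium phosphate, 1% TSB), bacteria pre-grown in 3% TSB. Aliquots then spread on TS agar and checked for colonies after 18 h at 37 °C.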

In another series the test system is mouse red blood cells. In kind it is cell-based. The procedure: Red blood cells were diluted with PBS, centrifuged 3 times at 900 g for 10 minutes, and washed. 100 μl of the diluted red blood cell solution (10% v/v PBS) was dispensed into each well of a 96-well microplate, and KU-5878, KU-5878-K4, KU-5878-K4-D, melittin, magainin 2 or daptomycin was added to each well which was then filled with PBS to 200 μl, followed by reaction by incubation at 37° C. for 1 hour. Then, the supernatant of the reaction solution was separated, and the absorbance at a wavelength of 550 nm was measured using a spectrophotometer. As control, PBS and 0.1% Triton X-100 (Triton X-100) solution were used.
Based on the results of measurement of the absorbance, the degree of red blood cell destruction was calculated according to Equation 1 below, and the results of the calculation are shown in FIG. 6. % The intact RBC=100(%)−[(absorbance of peptide-treated red blood cell solution−absorbance of PBS-treated red blood cell solution)/(absorbance of Triton X-100-treated red blood cell solution−absorbance of PBS-treated red blood cell solution)×100(%)] [Equation 1]

A further series concerns CRPA. In words: Minimum bactericidal concentration (MBC) assay. The format is cell-based. Conditions: Tables 11-21, no unit printed.
Series [3] is described as follows: Toxicity in vivo (survival and weight after intravenous injection). Also on record: species or system mouse (C57BL/6). The following applies: 100 mg/kg intravenous. The procedure:
At this time, the maximum volume of the injection dose was 150 μl.

Series [4] concerns Staphylococcus aureus (ATCC 29213). In words: Minimum bactericidal concentration (MBC) assay. Conditions: Tables 11-21, no unit printed. The format is cell-based. In outline: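 A 1 h killing step at 37° C in 10 mM sodium phosphate with 1% TSB exposes 1×10^5 CFU/ml of each strain to peptide across 0–300 μg/ml. The lowest peptide concentration leaving no colonies after 18 h on TS agar defines the MBC.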

Sequence KTMMQSGGTFGTFMAIGMGIR [KU-5878] yielded a survival rate in series [1] of 60%. The MBC MRSA in series [2] came out at 110 µg/mL; in series [2] (listed as 5878), 100 µg/mL. Besides, the “hemolysis of red blood cells” value with mouse red blood cells is listed as “little hemolysis even at a high concentration”. The sequence also showed an MBC CRPA with CRPA of 110 µg/mL. Besides, the “effect on the weight of the mice” value in series [3] (24-hour intervals for 12 days) is reported as “no effect on the weight”. Further, in series [3] (observed 12 days), the “survival of mice after injection” value was “all survived”. In series [4], the MBC Staphylococcus aureus was found to be 100 µg/mL.
